Patent US10716749B2, “Methods and compositions for treating a renal disease condition in a subject” (Palo Alto Investors, priority 2005, dated 2020)

Tests used:
[1] = system: Patients with a clinical diagnosis of hypertension; assay: Intrarenal administration of a renin inhibitor to treat hypertension; format: in vivo, human; settings: weekly infusions via an intrarenal catheter; control: saline infusions; sphygmomanometer
Experimental: Patients are enrolled on the basis of a clinical diagnosis of hypertension based on serial systolic and diastolic blood pressure measurements by sphygmomanometer. Treatment subjects are treated by weekly infusions of Aliskiren via an intrarenal catheter.

[2] = system: Patients with anticipated use of radiocontrast prior to diagnostic coronary catherization; assay: Intrarenal administration of metoprolol to prevent contrast nephropathy; format: in vivo, human; settings: intrarenal infusion 1 hour prior to the procedure; patients receiving radiocontrast
Experimental: Patients are prospectively enrolled on the basis of anticipated use of radiocontrast prior to a scheduled diagnostic coronary catherization. Treatment subjects are treated by intrarenal infusion of metoprolol 1 hour prior to the procedure.

SMILES: COCCCOc1cc(C[C@@H](C[C@H](N)[C@@H](O)C[C@H](C(=O)NCC(C)(C)C(N)=O)C(C)C)C(C)C)ccc1OC [Aliskiren]
- diastolic blood pressure measurements compared to control [1]: significant reduction
- systolic blood pressure measurements compared to control [1]: significant reduction

SMILES: COCCc1ccc(OCC(O)CNC(C)C)cc1 (stereo not drawn) [metoprolol]
- incidence of contrast nephropathy (as indicated by a greater than 25% increase in serum creatinine post-procedure) as compared to control [2]: significant reduction
